Reference: patent publication US20090061470A1, “Use of Human Hepatocytes for Determining Liver Function and Liver Regeneration” (priority 2006, published 2009)

Legend:
cytochrome P450 1A2 = conditions: Hep G2/C3A-cells; cited from earlier work
Hep G2/C3A-cells = conditions: 0.03 mM added to the medium; experimental stage
Procedure: Synthesis Capacity, for Example Micro-Albumin and Other Protein Synthesis of the Hep G2/C3A Cells (13).
The HepG2/C3A-cells are seeded in 24 well cell culture plates in a concentration of 250,000 cells/well for three days and 0.5 ml plasma from test persons+0.25 ml medium is added. The cells are then rinsed once with medium and after that are incubated with fresh medium (1 ml) for three days. After that micro albumin is determined nephelometrically from 0.2 ml cell culture medium and duplicated (+medium control). Each test batch with plasma from test persons is also duplicated.
Consequently the test period can also be shortened to 48 hours and the cells release measurable quantities of fibrinogen and transferrine (plasma proteins) that can be measured and duplicated in 200 μl cell culture medium.

Row | Structure (SMILES) | activity of cytochrome P450 1A2 after induction, relative to the initial value (cytochrome P450 1A2) [times the initial value] | synthesis capacity of the Hep G2/C3A-cells (Hep G2/C3A-cells)
1 | Cc1ccc2cc3c(ccc4ccccc43)c3c2c1CC3 [methylcholanthrene, 3-methylcholanthren] | 40 | 
2 | NCCC[C@H](N)C(=O)O.O=C(O)CCC(=O)C(=O)O [ornithine alpha-cetoglutarates] |  | increased
